pIC50: −log10 of the molar value.
How the values were obtained:
[1] = biological target: G protein-coupled receptor kinase 5 (Homo sapiens, UniProt P34947); assay: The low salt concentration and DDM were used to maximize GRK activity and disrupt small molecule aggregates from forming, respectively. […] Data was analyzed and inhibition curves were fit via GraphPad Prism.
Rhodopsin kinase GRK1 = biological target: T1, Rhodopsin kinase GRK1 (Homo sapiens, UniProt Q15835); assay: The low salt concentration and DDM were used to maximize GRK activity and disrupt small molecule aggregates from forming, respectively. Reactions were quenched with SDS loading buffer, separated via SDS-PAGE, dried and exposed with a phosphorimaging screen prior to quantification via Typhoon imager, as previously reported (see Thal et al., ACS Chemical Biology 7(11):1830-1839 (2012)). Data was analyzed and inhibition curves were fit via GraphPad Prism.
T1 sequence (Q15835 whole entry): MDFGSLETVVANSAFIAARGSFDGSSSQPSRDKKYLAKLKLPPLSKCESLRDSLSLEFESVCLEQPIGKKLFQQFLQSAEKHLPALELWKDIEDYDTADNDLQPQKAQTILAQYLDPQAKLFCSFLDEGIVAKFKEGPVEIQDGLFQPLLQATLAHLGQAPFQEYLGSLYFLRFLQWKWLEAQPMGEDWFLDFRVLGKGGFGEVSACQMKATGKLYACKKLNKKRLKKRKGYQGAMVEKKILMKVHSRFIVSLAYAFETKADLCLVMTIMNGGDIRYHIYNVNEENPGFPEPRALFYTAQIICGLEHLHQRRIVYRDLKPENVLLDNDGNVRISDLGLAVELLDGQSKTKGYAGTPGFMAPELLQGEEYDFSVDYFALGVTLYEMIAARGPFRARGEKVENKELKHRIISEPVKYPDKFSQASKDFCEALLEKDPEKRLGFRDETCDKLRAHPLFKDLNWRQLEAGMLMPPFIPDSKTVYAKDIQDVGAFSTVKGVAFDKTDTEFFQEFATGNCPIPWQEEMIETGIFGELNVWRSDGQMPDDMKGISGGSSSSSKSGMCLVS

G protein-coupled receptor kinase 5, sequence (P34947 whole entry): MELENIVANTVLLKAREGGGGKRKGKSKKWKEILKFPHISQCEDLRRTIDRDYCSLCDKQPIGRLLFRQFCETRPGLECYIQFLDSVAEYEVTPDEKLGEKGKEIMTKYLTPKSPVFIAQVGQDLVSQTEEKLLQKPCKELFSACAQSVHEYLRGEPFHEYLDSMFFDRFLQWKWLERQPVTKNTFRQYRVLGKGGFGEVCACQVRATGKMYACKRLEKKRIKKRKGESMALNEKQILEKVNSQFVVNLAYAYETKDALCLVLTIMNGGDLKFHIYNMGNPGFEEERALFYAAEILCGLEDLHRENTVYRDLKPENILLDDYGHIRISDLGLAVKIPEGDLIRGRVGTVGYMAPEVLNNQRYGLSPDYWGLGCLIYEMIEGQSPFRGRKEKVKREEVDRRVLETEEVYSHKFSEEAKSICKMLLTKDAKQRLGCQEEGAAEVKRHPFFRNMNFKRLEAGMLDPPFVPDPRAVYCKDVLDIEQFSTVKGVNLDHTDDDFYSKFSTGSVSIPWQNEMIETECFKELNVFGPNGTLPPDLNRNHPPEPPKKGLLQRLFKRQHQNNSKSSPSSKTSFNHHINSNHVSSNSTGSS

Row | Structure (SMILES) | pIC50 [1] | pIC50 (Rhodopsin kinase GRK1)
1 | C#CCN(CC(C)C)C(=O)Cc1cc(C2NC(=O)NC(C)=C2C(=O)Nc2ccc3[nH]ncc3c2)ccc1F (centres undefined) | 5.05 | –
2 | CC1=C(C(=O)Nc2ccc3[nH]ncc3c2)C(c2ccc(F)c(CC(=O)N(CCO)Cc3ccco3)c2)NC(=O)N1 (centres undefined) | – | 4.68
3 | C#CCN(Cc1ccco1)C(=O)Cc1cc(C2NC(=O)NC(C)=C2C(=O)Nc2ccc3[nH]ncc3c2)ccc1F (centres undefined) | 5.36 | –
4 | CC1=C(C(=O)Nc2ccc3[nH]ncc3c2)C(c2ccc(F)c(C(=O)NCc3nccc4ccccc34)c2)NC(=O)N1 (centres undefined) | 5.27 | –
